The target of this assay is T1, chimeric human H3 receptor (Homo sapiens, UniProt Q9Y5N1).
T1 construct: rat Galpha-i2 (Gnai2, rat); made in house; host or cells: Sf9 insect cells (baculovirus); P2 membranes
The experiment in a line: Chimeric human H3 receptor screening GTP binding assay (inhibition of histamine-stimulated GTP-gamma35S binding, Example 8). The format is biochemical. Conditions: 1 h; assay of Example 8; symbol "!" in column headed Ki; read-out: percent inhibition of agonist-induced GTP-gammaS binding to H3. The method, boiled down: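 Sf9 membranes co-expressing chimeric human H3 receptor and heterotrimeric G-protein (35 μg protein) incubated 60 min at room temperature with 4 μM compound, 1 μM histamine and 125 pM GTP-gamma35S in pH 7.4 buffer with 10 μM GDP. Filter-bound radioactivity, nonspecific (10 μM GTP-gammaS) subtracted, reported as % inhibition of histamine signal.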

T1 sequence (Q9Y5N1 with tags, fused parts or gaps): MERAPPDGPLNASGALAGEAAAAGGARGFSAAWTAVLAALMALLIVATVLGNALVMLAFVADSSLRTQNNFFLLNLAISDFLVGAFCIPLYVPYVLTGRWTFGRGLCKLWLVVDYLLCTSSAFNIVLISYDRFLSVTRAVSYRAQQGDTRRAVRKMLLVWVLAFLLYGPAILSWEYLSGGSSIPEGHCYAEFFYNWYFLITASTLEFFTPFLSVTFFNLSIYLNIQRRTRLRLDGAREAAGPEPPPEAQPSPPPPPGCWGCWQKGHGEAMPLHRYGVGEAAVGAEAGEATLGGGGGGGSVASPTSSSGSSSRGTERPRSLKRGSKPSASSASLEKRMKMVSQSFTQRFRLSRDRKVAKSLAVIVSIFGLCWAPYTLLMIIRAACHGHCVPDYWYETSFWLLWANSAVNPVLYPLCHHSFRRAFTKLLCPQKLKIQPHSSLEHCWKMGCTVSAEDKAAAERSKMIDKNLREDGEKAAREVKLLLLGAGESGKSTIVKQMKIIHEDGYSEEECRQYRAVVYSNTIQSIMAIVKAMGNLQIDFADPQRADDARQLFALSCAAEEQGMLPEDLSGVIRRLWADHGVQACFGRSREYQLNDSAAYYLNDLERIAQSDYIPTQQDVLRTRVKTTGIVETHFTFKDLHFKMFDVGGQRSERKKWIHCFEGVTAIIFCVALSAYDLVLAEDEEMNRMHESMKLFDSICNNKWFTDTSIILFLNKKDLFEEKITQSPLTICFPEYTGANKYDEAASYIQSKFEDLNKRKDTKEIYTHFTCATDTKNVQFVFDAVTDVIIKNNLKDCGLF

The inhibition is the relative decrease from the control value, in per cent. As for `COc1ccc(OCC(=O)N2CCc3cnc(N4CCN(C5CCC5)CC4)nc3CC2)cc1` [Compound 325, 2-(4-cyclobutylpiperazin-1-yl)-7-[(4-methoxyphenoxy)acetyl]-6,7,8,9-tetrahydro-5H-pyrimido[4,5-d]azepine], the inhibition at 4 µM was no less than 90%.

Turning to `O=C(COc1ccc(Cl)cc1)N1CCc2cnc(N3CCN(C4CCC4)CC3)nc2CC1` [Compound 326, 7-[(4-chlorophenoxy)acetyl]-2-(4-cyclobutylpiperazin-1-yl)-6,7,8,9-tetrahydro-5H-pyrimido[4,5-d]azepine], the inhibition at 4 µM is no less than 90%.

Turning to `Cc1cccc(OCC(=O)N2CCc3cnc(N4CCN(C5CCC5)CC4)nc3CC2)c1C` [Compound 327, 2-(4-cyclobutylpiperazin-1-yl)-7-[(2,3-dimethylphenoxy)acetyl]-6,7,8,9-tetrahydro-5H-pyrimido[4,5-d]azepine], the inhibition at 4 µM is no less than 90%.

With `Cc1cc(Cl)ccc1OCC(=O)N1CCc2cnc(N3CCN(C4CCC4)CC3)nc2CC1` [Compound 328, 7-[(4-chloro-2-methylphenoxy)acetyl]-2-(4-cyclobutylpiperazin-1-yl)-6,7,8,9-tetrahydro-5H-pyrimido[4,5-d]azepine], the inhibition at 4 µM is no less than 90%.

For the compound `CC(C)(C)c1ccc(OCC(=O)N2CCc3cnc(N4CCN(C5CCC5)CC4)nc3CC2)cc1` [Compound 329, 7-[(4-tert-butylphenoxy)acetyl]-2-(4-cyclobutylpiperazin-1-yl)-6,7,8,9-tetrahydro-5H-pyrimido[4,5-d]azepine], the inhibition at 4 µM was no less than 90%.

In the case of `O=C(COc1cccc(Cl)c1)N1CCc2cnc(N3CCN(C4CCC4)CC3)nc2CC1` [Compound 330, 7-[(3-chlorophenoxy)acetyl]-2-(4-cyclobutylpiperazin-1-yl)-6,7,8,9-tetrahydro-5H-pyrimido[4,5-d]azepine], the inhibition at 4 µM is no less than 90%.

Take `O=C(COc1ccc(Cl)cc1Cl)N1CCc2cnc(N3CCN(C4CCC4)CC3)nc2CC1` [Compound 331, 2-(4-cyclobutylpiperazin-1-yl)-7-[(2,4-dichlorophenoxy)acetyl]-6,7,8,9-tetrahydro-5H-pyrimido[4,5-d]azepine]: the inhibition at 4 µM is no less than 90%.

For the compound `O=C(COc1ccc(Cl)c(Cl)c1)N1CCc2cnc(N3CCN(C4CCC4)CC3)nc2CC1` [Compound 332, 2-(4-cyclobutylpiperazin-1-yl)-7-[(3,4-dichlorophenoxy)acetyl]-6,7,8,9-tetrahydro-5H-pyrimido[4,5-d]azepine], the inhibition at 4 µM is no less than 90%.

Regarding `Cc1ccc(OCC(=O)N2CCc3cnc(N4CCN(C5CCC5)CC4)nc3CC2)c(C)c1` [Compound 333, 2-(4-cyclobutylpiperazin-1-yl)-7-[(2,4-dimethylphenoxy)acetyl]-6,7,8,9-tetrahydro-5H-pyrimido[4,5-d]azepine], the inhibition at 4 µM was no less than 90%.

For `Cc1ccc(C)c(OCC(=O)N2CCc3cnc(N4CCN(C5CCC5)CC4)nc3CC2)c1` [Compound 334, 2-(4-cyclobutylpiperazin-1-yl)-7-[(2,5-dimethylphenoxy)acetyl]-6,7,8,9-tetrahydro-5H-pyrimido[4,5-d]azepine], the inhibition at 4 µM is no less than 90%.

Take `O=C(COc1cccc2ccccc12)N1CCc2cnc(N3CCN(C4CCC4)CC3)nc2CC1` [Compound 335, 2-(4-cyclobutylpiperazin-1-yl)-7-[(1-naphthyloxy)acetyl]-6,7,8,9-tetrahydro-5H-pyrimido[4,5-d]azepine]: the inhibition at 4 µM was no less than 90%.

Turning to `O=C(COc1ccc2ccccc2c1)N1CCc2cnc(N3CCN(C4CCC4)CC3)nc2CC1` [Compound 336, 2-(4-cyclobutylpiperazin-1-yl)-7-[(2-naphthyloxy)acetyl]-6,7,8,9-tetrahydro-5H-pyrimido[4,5-d]azepine], the inhibition at 4 µM was no less than 90%.

With `CC(C)(Oc1ccc(Cl)cc1)C(=O)N1CCc2cnc(N3CCN(C4CCC4)CC3)nc2CC1` [Compound 337, 7-[2-(4-chlorophenoxy)-2-methylpropanoyl]-2-(4-cyclobutylpiperazin-1-yl)-6,7,8,9-tetrahydro-5H-pyrimido[4,5-d]azepine], the inhibition at 4 µM was no less than 90%.

With `CC(Oc1ccc(Cl)cc1Cl)C(=O)N1CCc2cnc(N3CCN(C4CCC4)CC3)nc2CC1` (stereo not shown) [Compound 338, 2-(4-cyclobutylpiperazin-1-yl)-7-[2-(2,4-dichlorophenoxy)propanoyl]-6,7,8,9-tetrahydro-5H-pyrimido[4,5-d]azepine], the inhibition at 4 µM was no less than 90%.

With `CC(Oc1ccccc1)C(=O)N1CCc2cnc(N3CCN(C4CCC4)CC3)nc2CC1` (stereo not shown) [Compound 339, 2-(4-cyclobutylpiperazin-1-yl)-7-(2-phenoxypropanoyl)-6,7,8,9-tetrahydro-5H-pyrimido[4,5-d]azepine], the inhibition at 4 µM was no less than 90%.

With `CC(Oc1cccc(Cl)c1)C(=O)N1CCc2cnc(N3CCN(C4CCC4)CC3)nc2CC1` (stereo not shown) [Compound 340, 7-[2-(3-chlorophenoxy)propanoyl]-2-(4-cyclobutylpiperazin-1-yl)-6,7,8,9-tetrahydro-5H-pyrimido[4,5-d]azepine], the inhibition at 4 µM was no less than 90%.

As to `O=C(C1COc2ccccc2O1)N1CCc2cnc(N3CCN(C4CCC4)CC3)nc2CC1` (stereo not shown) [Compound 341, 2-(4-cyclobutylpiperazin-1-yl)-7-(2,3-dihydro-1,4-benzodioxin-2-ylcarbonyl)-6,7,8,9-tetrahydro-5H-pyrimido[4,5-d]azepine], the inhibition at 4 µM was no less than 90%.

With `CC(CC(=O)N1CCc2cnc(N3CCN(C4CCC4)CC3)nc2CC1)Sc1ccc(Cl)cc1` (stereo not shown) [Compound 342, 7-{3-[(4-chlorophenyl)thio]butanoyl}-2-(4-cyclobutylpiperazin-1-yl)-6,7,8,9-tetrahydro-5H-pyrimido[4,5-d]azepine], the inhibition at 4 µM was no less than 90%.

On to `CC(Oc1ccc(OC(F)(F)F)cc1)C(=O)N1CCc2cnc(N3CCN(C4CCC4)CC3)nc2CC1` (stereo not shown) [Compound 343, 2-(4-cyclobutylpiperazin-1-yl)-7-{2-[4-(trifluoromethoxy)phenoxy]propanoyl}-6,7,8,9-tetrahydro-5H-pyrimido[4,5-d]azepine], for which the inhibition at 4 µM is no less than 90%.

For `CC(Oc1ccccc1Cl)C(=O)N1CCc2cnc(N3CCN(C4CCC4)CC3)nc2CC1` (stereo not shown) [Compound 344, 7-[2-(2-chlorophenoxy)propanoyl]-2-(4-cyclobutylpiperazin-1-yl)-6,7,8,9-tetrahydro-5H-pyrimido[4,5-d]azepine], the inhibition at 4 µM was no less than 90%.

Take `CC(Oc1ccc(Cl)cc1)C(=O)N1CCc2cnc(N3CCN(C4CCC4)CC3)nc2CC1` (stereo not shown) [Compound 345, 7-[2-(4-chlorophenoxy)propanoyl]-2-(4-cyclobutylpiperazin-1-yl)-6,7,8,9-tetrahydro-5H-pyrimido[4,5-d]azepine]: the inhibition at 4 µM is no less than 90%.

Consider `Cc1ccccc1OC(C)C(=O)N1CCc2cnc(N3CCN(C4CCC4)CC3)nc2CC1` (stereo not shown) [Compound 346, 2-(4-cyclobutylpiperazin-1-yl)-7-[2-(2-methylphenoxy)propanoyl]-6,7,8,9-tetrahydro-5H-pyrimido[4,5-d]azepine], for which the inhibition at 4 µM was no less than 90%.

Regarding `Cc1cccc(OC(C)C(=O)N2CCc3cnc(N4CCN(C5CCC5)CC4)nc3CC2)c1C` (stereo not shown) [Compound 347, 2-(4-cyclobutylpiperazin-1-yl)-7-[2-(2,3-dimethylphenoxy)propanoyl]-6,7,8,9-tetrahydro-5H-pyrimido[4,5-d]azepine], the inhibition at 4 µM was no less than 90%.

Take `CCC(C(=O)N1CCc2cnc(N3CCN(C4CCC4)CC3)nc2CC1)c1ccccc1` (stereo not shown) [Compound 348, 2-(4-cyclobutylpiperazin-1-yl)-7-(2-phenylbutanoyl)-6,7,8,9-tetrahydro-5H-pyrimido[4,5-d]azepine]: the inhibition at 4 µM was no less than 90%.

In the case of `CC(C)C(C(=O)N1CCc2cnc(N3CCN(C4CCC4)CC3)nc2CC1)c1ccccc1` (stereo not shown) [Compound 349, 2-(4-cyclobutylpiperazin-1-yl)-7-(3-methyl-2-phenylbutanoyl)-6,7,8,9-tetrahydro-5H-pyrimido[4,5-d]azepine], the inhibition at 4 µM was no less than 90%.

For the compound `CCC(CC)(C(=O)N1CCc2cnc(N3CCN(C4CCC4)CC3)nc2CC1)c1ccccc1` [Compound 350, 2-(4-cyclobutylpiperazin-1-yl)-7-(2-ethyl-2-phenylbutanoyl)-6,7,8,9-tetrahydro-5H-pyrimido[4,5-d]azepine], the inhibition at 4 µM is no less than 90%.

In the case of `Cc1ccccc1C(C(=O)N1CCc2cnc(N3CCN(C4CCC4)CC3)nc2CC1)C(C)C` (stereo not shown) [Compound 351, 2-(4-cyclobutylpiperazin-1-yl)-7-[3-methyl-2-(2-methylphenyl)butanoyl]-6,7,8,9-tetrahydro-5H-pyrimido[4,5-d]azepine], the inhibition at 4 µM is no less than 90%.

`CCC(C(=O)N1CCc2cnc(N3CCN(C4CCC4)CC3)nc2CC1)c1ccc(OC)cc1` (stereo not shown) [Compound 352, 2-(4-cyclobutylpiperazin-1-yl)-7-[2-(4-methoxyphenyl)butanoyl]-6,7,8,9-tetrahydro-5H-pyrimido[4,5-d]azepine]: the inhibition at 4 µM was no less than 90%.

With `O=C(C(c1ccccc1)C1CCCC1)N1CCc2cnc(N3CCN(C4CCC4)CC3)nc2CC1` (stereo not shown) [Compound 353, 2-(4-cyclobutylpiperazin-1-yl)-7-[cyclopentyl(phenyl)acetyl]-6,7,8,9-tetrahydro-5H-pyrimido[4,5-d]azepine], the inhibition at 4 µM was no less than 90%.

`O=C(C(c1ccccc1)c1ccccc1)N1CCc2cnc(N3CCN(C4CCC4)CC3)nc2CC1` [Compound 354, 2-(4-cyclobutylpiperazin-1-yl)-7-(diphenylacetyl)-6,7,8,9-tetrahydro-5H-pyrimido[4,5-d]azepine]: the inhibition at 4 µM is no less than 90%.

As to `O=C(C(c1ccccc1)C1CCCCC1)N1CCc2cnc(N3CCN(C4CCC4)CC3)nc2CC1` (stereo not shown) [Compound 355, 2-(4-cyclobutylpiperazin-1-yl)-7-[cyclohexyl(phenyl)acetyl]-6,7,8,9-tetrahydro-5H-pyrimido[4,5-d]azepine], the inhibition at 4 µM is no less than 90%.

The values are drawn from patent publication US20080051387A1, “TETRAHYDROPYRIDO[3,4-D]PYRIMIDINES AND RELATED ANALOGUES” (priority 2006, published 2008).
